One assay relates to Candida albicans. The assay is described as follows: Antifungal activity against Candida albicans by NCCLS M27-A method. The assay is classed as functional.
A further assay relates to Candida parapsilosis. Briefly: Antifungal activity against Candida parapsilosis by NCCLS M27-A method. The assay is classed as functional. To be noted: Lodderomyces parapsilosis.

This note sets out measurements from ChEMBL document CHEMBL1141432, “Mono- and Di-sesquiterpenoids from Chloranthus spicatus” (2007).

In brackets after ≈: the same amount, converted by molar mass. Bounds are passed on as bounds.

Turning to `C/C=C(\C)C(=O)OC[C@]1(O)[C@H]2C[C@H]2[C@]2(C)[C@@H]3C[C@@]4(O)C5=C(C6=C(C)C(=O)O[C@]6(O)[C@H](O)[C@@]5(C)[C@@H]5C[C@@H]54)[C@@]34OC(=O)C(CO)=C4C[C@@H]12` [CHLORAMULTILIDE D], the MIC against Candida albicans and against Candida parapsilosis was above 0.157 µM each time.
Turning to `CC1=C2C3=C4[C@@](C)(C(=O)[C@@]2(O)OC1=O)[C@@H]1C[C@@H]1[C@@]4(O)C[C@@H]1[C@]32OC(=O)C3=C2C[C@H]2[C@](O)(COC(=O)/C=C(\C)COC(=O)CCC(=O)OC3)[C@H]3C[C@@H]3[C@]12C` [CHLORAHOLOLIDE B], the MIC against Candida albicans and against Candida parapsilosis was above 0.157 µM throughout.
For the molecule `CC1=C2C3=C4[C@](C)([C@@H]5C[C@@H]5[C@@]4(O)C[C@@H]4[C@]35OC(=O)C3=C5C[C@H]5[C@](O)(COC(=O)/C(C)=C/COC(=O)CCC(=O)OC3)[C@H]3C[C@H]3[C@]45C)[C@@H](O)[C@@]2(O)OC1=O` [CHLORAMULTILIDE C], the MIC in the assay on Candida albicans and in the assay with Candida parapsilosis was above 0.157 µM in each case.
As to `CC1=C2C3=C4[C@](C)([C@@H]5C[C@@H]5[C@@]4(O)C[C@@H]4[C@]35OC(=O)C3=C5C[C@H]5[C@](O)(COC(=O)/C=C(\C)COC(=O)CCC(=O)OC3)[C@H]3C[C@@H]3[C@]45C)[C@@H](O)[C@@]2(O)OC1=O` [CHLORAMULTILIDE B], the minimum inhibitory concentration (MIC) with Candida albicans and against Candida parapsilosis was 0.068 µM (≈ 0.05 µg/mL) each time.
